Data: US7759542B2, “Glycine N-methyltransferase (GNMT) animal model and use thereof” (priority 2007, dated 2010)
Values joined by “and” are separate entries in the source; they are usually repeats but may differ in a detail not shown here. Identical values can stand only once. “Also recorded” adds a separate entry of the source. Like-named read-outs stand apart in the source and are kept apart here.

Legend:
GNMT-TG mice = settings: mouse, in vivo
wild-type mice [1] = settings: mouse, in vivo
Gnmt−/− mice = settings: mouse, in vivo
HuH-7 cells = assay: MTT cytotoxicity assay of AFB1 on HuH-7 cells; type: cell-based
Description: MTT assay was used to determine the cytotoxicity effect of AFB1. In brief, cells were seeded on 96 well plate. At the time of assay, culture medium was replaced by 100 μL fresh medium containing 10 μL of 5 mg/mL MTT stock solution for each well. After 4 hr of labeling cells with MTT, medium was removed then 100 μL DMSO was added to each well for 10 min at 37° C. Samples were mixed and read absorbance at 540 nm. For half lethal concentration (LC50) determination, seven thousand HuH-7 cells were seeded on 96 well plate for 18 hr. Cells were treated with different concentration of AFB1 and MTT assay was performed at series time points, triplicate for each set. The survival percentage is calculated by dividing the OD value of treatment group by solvent control group. For cytotoxicity assay, five thousand HuH-7 cells were infected with different amount of adenovirus or lentivirus carrying GNMT cDNA for 8 hr then refreshed medium for another 10 hr. After 72 hr of AFB1 treatment, MTT assay was performed to determine the survival percentage.
MTT assay was used to determine the percentage of survived cells. To optimize the condition of cytotoxicity assay, HuH-7 cells were treated with different concentrations of AFB1 for series time course. […] The cytotoxicity effect of treatment up to 16 μM AFB1 was obscure within 24 hr. […]

GNMT = type: cell-based
wild-type mice [2] = settings: mouse, in vivo; remark: listed apart in the source

Substance: aflatoxin B1 [AFB1]
- Pathological examination of liver (GNMT-TG mice): normal pattern
- ALT (GNMT-TG mice; ip): 61 ± 37 and 100 ± 73
- liver/body weight % (GNMT-TG mice; ip): 4.5 ± 0.9% and 3.7 ± 0.4%
- Pathological examination of liver (wild-type mice [1]): dysplasia and HCC
- ALT (wild-type mice [1]; ip): 134 ± 112 and 109 ± 97
- liver/body weight % (wild-type mice [1]; ip): 4.7 ± 0.3% and 4.0 ± 0.7%
- HE staining of histological liver sections (Gnmt−/− mice): Dysplastic nodule, early HCC and fatty nodules; also recorded: Sclenosing HCC, Dysplastic nodule with focal fatty change
- Nodules <0.5 cm (Gnmt−/− mice; ip): 3 and 6
- Nodules >0.5 cm (Gnmt−/− mice; ip): 4 and 5
- cytotoxicity effect (HuH-7 cells): obscure
- GNMT distribution following AFB1 treatment (GNMT): partly translocated to cell nuclei
- HE staining of histological liver sections (wild-type mice [2]): no abnormalities
- ALT (wild-type mice [2]; ip): 27.5 ± 0.71 U/L and 22.83 ± 3.92 U/L
- AST (wild-type mice [2]; ip): 72.00 ± 58.92 U/L and 42.50 ± 8.22 U/L
- Nodules <0.5 cm (wild-type mice [2]; ip): 0
- Nodules >0.5 cm (wild-type mice [2]; ip): 0
